Assay results reported in US6843784B2, “Triclosan and silver compound containing medical devices” (priority 1999, dated 2005).
Where “and” joins values, the source holds several entries; their conditions need not be identical. Equal values may be shown once. Read-outs that look alike come from different tables or passages of the source.

Tested on: S. aureus
Assay type: cell-based
Method: Drug solutions containing 10% ammonia were prepared in ethanol, and 0.1 ml of each solution was added to 0.9 ml of bacterial culture (50% trypticase soy broth +50% Bovine Calf Serum containing 10^8 cfu S. aureus/ml). After 10 minutes, a 0.1 ml aliquot was removed and added to 0.9 ml drug inactivating media (LTSB). […] The colony counts were then determined.

For `Oc1cc(Cl)ccc1Oc1ccc(Cl)cc1Cl` [Triclosan, 2,4,4′-trichloro-2′-hydroxydiphenyl ether], the “Growth in Culture” value was 2 × 10^7 cfu/ml and 1.2 × 10^7 cfu/ml, the “reduction in growth in culture” value (0.5 percent triclosan alone (Table 4 experiment)) was 0 log and the “Growth in Culture” value (Solution: Triclosan 0.25%, Silver Sulfadiazine 0%, after 10 minutes, control 2.1 × 10^7) was 1.2 × 10^7 cfu/ml. For the same molecule, the “Growth in Culture” value (Solution: Triclosan 0.5%, Silver Sulfadiazine 0%, after 10 minutes, control 2.1 × 10^7) was 1 × 10^7 cfu/ml, the “reduction in growth in culture compared to the control” value (triclosan alone at 0.25 percent (Table 3 experiment)) was “less than a power of 10” and the “reduction in growth in culture compared to the control” value (triclosan alone at 0.5 percent (Table 3 experiment)) was “less than a power of 10”.
